Assay results: ChEMBL document CHEMBL1124546, “Synthesis of unsymmetrically substituted 1,4-bis[(aminoalkyl)amino]anthracene-9,10-diones as potential antileukemic agents” (1989)
In brackets after ≈: the same amount, converted by molar mass.

Experiments:
[1] = Survivors of CDF1 mice on day 4 after 1st injection of compound at 5 mg/kg in six mice; 6/6; assay type: functional, Mus musculus
[2] = system: P388; assay: Percent ratio of the medium survival time for P388 murine leukemia in CDF1 mice at 5 mg/kg; assay type: functional, Mus musculus
[3] = Survivors of CDF1 mice on day 4 after 1st injection of compound at 20 mg/kg in six mice; 6/6; assay type: functional, Mus musculus
[4] = (§1) Survivors of CDF1 mice on day 4 after 1st injection of compound 80 at mg/kg in six mice; 6/6; assay type: functional, Mus musculus
[5] = system: P388; assay: Percent ratio of the medium survival time for P388 murine leukemia in CDF1 mice at 20 mg/kg; assay type: functional, Mus musculus
[6] = Survivors of CDF1 mice on day 4 after 1st injection of compound at 10 mg/kg in six mice; 6/6; assay type: functional, Mus musculus
[7] = system: P388; assay: Percent ratio of the medium survival time for P388 murine leukemia in CDF1 mice at 10 mg/kg; assay type: functional, Mus musculus
[8] = system: P388; assay: Percent ratio of the medium survival time for P388 murine leukemia in CDF1 mice at 40 mg/kg; assay type: functional, Mus musculus
[9] = system: L1210; assay: Concentration required to inhibit the growth of L1210 leukemia cells; assay type: functional; conditions: Mus musculus, read-out: ED50 (the source's name)
[10] = system: P388; assay: Percent ratio of the medium survival time for P388 murine leukemia in CDF1 mice at 80 mg/kg; assay type: functional, Mus musculus
[11] = (§2) Survivors of CDF1 mice on day 4 after 1st injection of compound at 40 mg/kg in six mice; 6/6; assay type: functional, Mus musculus
[12] = Survivors of CDF1 mice on day 4 after 1st injection of compound at 1.25 mg/kg in seven mice; 7/7; assay type: functional, Mus musculus
[13] = Survivors of CDF1 mice on day 4 after 1st injection of compound at 5 mg/kg in seven mice; 7/7; assay type: functional, Mus musculus
[14] = system: P388; assay: Percent ratio of the medium survival time for P388 murine leukemia in CDF1 mice at 1.25 mg/kg; assay type: functional, Mus musculus
[15] = Survivors of CDF1 mice on day 4 after 1st injection of compound at 20 mg/kg in seven mice; 7/7; assay type: functional, Mus musculus
[16] = Survivors of CDF1 mice on day 4 after 1st injection of compound at 2.5 mg/kg in seven mice; 7/7; assay type: functional, Mus musculus
[17] = system: P388; assay: Percent ratio of the medium survival time for P388 murine leukemia in CDF1 mice at 2.5 mg/kg; assay type: functional, Mus musculus
[18] = Survivors of CDF1 mice on day 4 after 1st injection of compound at 10 mg/kg in seven mice; 7/7; assay type: functional, Mus musculus
[19] = Survivors of CDF1 mice on day 4 after 1st injection of compound 40 at mg/kg in seven mice; 5/7; assay type: functional, Mus musculus
[20] = system: P388; assay: as §1; assay type: functional, Mus musculus
[21] = system: P388; assay: as §2; assay type: functional, Mus musculus
[22] = system: P388; assay: Percent ratio of the medium survival time for P388 murine leukemia in CDF1 mice at 12.5 mg/kg; assay type: functional, Mus musculus
[23] = Survivors of CDF1 mice on day 4 after 1st injection of compound 25 at mg/kg in six mice; 6/6; assay type: functional, Mus musculus
[24] = Survivors of CDF1 mice on day 4 after 1st injection of compound at 12.5 mg/kg in six mice; 6/6; assay type: functional, Mus musculus
[25] = system: P388; assay: Percent ratio of the medium survival time for P388 murine leukemia in CDF1 mice at 6.25 mg/kg; assay type: functional, Mus musculus
[26] = Survivors of CDF1 mice on day 4 after 1st injection of compound at 3.12 mg/kg in six mice; 6/6; assay type: functional, Mus musculus
[27] = system: P388; assay: Percent ratio of the medium survival time for P388 murine leukemia in CDF1 mice at 3.12 mg/kg; assay type: functional, Mus musculus
[28] = system: P388; assay: Percent ratio of the medium survival time for P388 murine leukemia in CDF1 mice at 25 mg/kg; assay type: functional, Mus musculus
[29] = Survivors of CDF1 mice on day 4 after 1st injection of compound at 6.25 mg/kg in six mice; 6/6; assay type: functional, Mus musculus
[30] = Survivors of CDF1 mice on day 4 after 1st injection of compound at 3 mg/kg in six mice; 6/6; assay type: functional, Mus musculus
[31] = Survivors of CDF1 mice on day 4 after 1st injection of compound at 1.5 mg/kg in six mice; 6/6; assay type: functional, Mus musculus
[32] = Survivors of CDF1 mice on day 4 after 1st injection of compound at 0.75 mg/kg in six mice; 6/6; assay type: functional, Mus musculus
[33] = Survivors of CDF1 mice on day 4 after 1st injection of compound at 6 mg/kg in six mice; 6/6; assay type: functional, Mus musculus
[34] = system: P388; assay: Percent ratio of the medium survival time for P388 murine leukemia in CDF1 mice at 0.75 mg/kg; assay type: functional, Mus musculus
[35] = system: P388; assay: Percent ratio of the medium survival time for P388 murine leukemia in CDF1 mice at 1.5 mg/kg; assay type: functional, Mus musculus
[36] = system: P388; assay: Percent ratio of the medium survival time for P388 murine leukemia in CDF1 mice at 3 mg/kg; assay type: functional, Mus musculus
[37] = Survivors of CDF1 mice on day 4 after 1st injection of compound 12 at mg/kg in six mice; 6/6; assay type: functional, Mus musculus
[38] = system: P388; assay: Percent ratio of the medium survival time for P388 murine leukemia in CDF1 mice at 12 mg/kg; assay type: functional, Mus musculus
[39] = system: P388; assay: Percent ratio of the medium survival time for P388 murine leukemia in CDF1 mice at 6 mg/kg; assay type: functional, Mus musculus

CN(C)CCNc1ccc(NCCNCCO)c2c1C(=O)c1ccccc1C2=O
Survival [1]: 6
T/C [2]: 144%
Survival [3]: 6
Survival [4]: 6
T/C [5]: 173%
Survival [6]: 6
T/C [7]: 151%
T/C [8]: 192%
EC50 [9]: 0.64 µg/mL (≈ 1.61 µM)
T/C [10]: 192%
Survival [11]: 6

O=C1c2ccccc2C(=O)c2c(NCCN3CCOCC3)ccc(NCCNCCO)c21
Survival [1]: 6
Survival [3]: 6
Survival [4]: 6
Survival [6]: 6
T/C [7]: 132%
EC50 [9]: 2.36 µg/mL (≈ 5.38 µM)
Survival [11]: 6

NCCNc1ccc(NCCNCCO)c2c1C(=O)c1ccccc1C2=O
T/C [2]: 200%
Survival [12]: 7
Survival [13]: 7
T/C [5]: 300%
T/C [14]: 170%
Survival [15]: 7
T/C [7]: 300%
Survival [16]: 7
T/C [17]: 180%
T/C [8]: 80%
Survival [18]: 7
EC50 [9]: 2.38 µg/mL (≈ 6.46 µM)
Survival [19]: 5

O=C1c2ccccc2C(=O)c2c(NCCNCCO)ccc(NCCO)c21
Survival [1]: 6
T/C [2]: 115%
Survival [3]: 6
Survival [4]: 6
T/C [5]: 142%
Survival [6]: 6
T/C [7]: 125%
T/C [8]: 127%
EC50 [9]: 12.3 µg/mL (≈ 33.3 µM)
T/C [10]: 144%
Survival [11]: 6

CC(C)(CO)NCCNc1ccc(NCCNCCO)c2c1C(=O)c1ccccc1C2=O
Survival [1]: 6
Survival [3]: 6
Survival [20]: 6
Survival [6]: 6
T/C [7]: 151%
EC50 [9]: 1.48 µg/mL (≈ 3.36 µM)
Survival [21]: 6

O=C1c2ccccc2C(=O)c2c(NCCNCCO)ccc(NCCNCCO)c21 [AMETANTRONE]
T/C [22]: 300%
Survival [23]: 6
Survival [24]: 6
T/C [25]: 240%
Survival [26]: 6
T/C [27]: 200%
EC50 [9]: 2.54 µg/mL (≈ 6.16 µM)
T/C [28]: 200%
Survival [29]: 6

O=C1c2c(O)ccc(O)c2C(=O)c2c(NCCNCCO)ccc(NCCNCCO)c21 [MITOXANTRONE]
Survival [30]: 6
Survival [31]: 6
Survival [32]: 6
Survival [33]: 6
T/C [34]: 209%
T/C [35]: 201%
T/C [36]: 288%
Survival [37]: 6
T/C [38]: 118%
T/C [39]: 192%
